Consider one molecule from US20240093148A1, “METHOD FOR DIFFERENTIATING HUMAN INDUCED PLURIPOTENT STEM CELLS INTO OLIGODENDROCYTES, AND KIT AND USE” (ALLIFE MEDICINE (ZHUHAI) LIMITED, priority 2021, published 2024).

The test concerns human induced pluripotent stem cells. In words: Induction of oligodendrocytes from iPSC in OPC mature culture medium with or without puerarin (immunofluorescence, cell count). The format is cell-based. The procedure: Cleaned with DPBS three times, 3 minutes per time, and fixed with 4% PFA at room temperature for 40 minutes. Cleaned with DPBS three times, 3 minutes per time. 0.5% TritonX-100, perforation for 15 minutes. 5% BSA+0.15% TritonX-100, blocked at room temperature for 1 hour. Preparation of PBST: DPBS+1% BSA+0.15% TritonX-100. The primary antibody was added, stay overnight at 4 degrees. Recycled the primary antibody solution and cleaned it with PB ST three times for 10 minutes each time. The secondary antibody was added with a ratio of 1:500, stayed overnight at 4 degrees, away from light. Cleaned with PB ST three times for 10 minutes each time. 5 μg/ml DAPI for 2-3 minutes, away from light. Cleaned with DPBS and added 90% glycerol.
OPC mature medium—containing puerarin: 95% DMEM/F-12 medium, 1% non-essential amino acid, 1% GlutaMAX-I, 0.1 mM 2-mercaptoethanol, 1% N2 supplement, 2% B27 supplement, 10 ng/mL PDGF-AA, 10 ng/mL IGF-1, 5 ng/mL HGF, 10 ng/mL NT3, 60 ng/mL T3, 100 ng/mL Biotin, 1 μM cAMP, 25 μM Puerarin, 25 μg/ml insulin. […]
On the 37th day of cultivation, the percentage of oligodendrocytes in all cells was quantitatively counted, as shown in FIG. 3.

Consider `O=c1c(-c2ccc(O)cc2)coc2c([C@@H]3O[C@H](CO)[C@@H](O)[C@H](O)[C@H]3O)c(O)ccc12` [puerarin, Puerarin], for which the “percentage of oligodendrocytes in all cells” value (day 37 of cultivation, 25 μM puerarin in OPC mature culture medium, control medium without puerarin about 21%) was “about 36%”. Also, where the note is “later stage of induction of iPSC to oligodendrocytes”, the “increase of the number of oligodendrocytes” value is 30%.
